# Test results taken from US11524021B2, “Use of ginsenoside M1 for manufacturing medicament for treating oral cancer” (priority 2018, dated 2022).
# Experiments:
# Format in all cases: cell-based
# [1] = test system: human oral cancer cells OECM-1; experiment: Cell cycle distribution, PI staining by flow cytometry; details: 10˜20 μg/ml, 24 h
# Description: (§1) Human oral cancer cell line OECM-1 cells were incubated for 24 h with ginsenoside M1 (10˜20 μg/ml), 50 μM cistaplatin (CDDP) or vehicle (0.1% DMSO). (FIG. 3A) The apoptotic DNA breaks was assayed by terminal deoxynucleotidyl transferase dUTP nick end labeling (TUNEL) assay using flow cytometry. (FIG. 3B) The cell cycle distribution was determined by PI staining using flow cytometry. (FIG. 3C) The apoptosis level was measured by PI/Annexin V double staining assay using flow cytometry. (FIG. 3D) The activation levels of caspase-9 and caspase-3 were measured by detecting the degradation of pro-caspase-9 and pro-caspase-3 using Western blotting. […] (One-way ANOVA with Dunnett's multiple comparisons test).
# (§2) To gain further insight into the mode of action of ginsenoside M1, three assays targeting hallmarks of apoptosis, namely (1) the apoptotic DNA breaks assayed by terminal deoxynucleotidyl transferase dUTP nick end labeling (TUNEL) assay, (2) the cell cycle assayed by flow cytometry after propidium iodide (PI)-staining nuclei, (3) the PI/Annexin V double staining assay, and (4) caspase activation were performed. Plate 1×10^6 human oral cancer cells OECM-1 per 6-cm dish in 2 ml of culture medium and were grown overnight at 37° C. in a 5% CO2 incubator. The cells were incubated for 24 h with ginsenoside M1 (10˜20 μg/ml), 50 μM cistaplatin (CDDP) or vehicle. Each group contains a final DMSO concentration of 0.1%. Thereafter, three assays were performed. […] The cells in sub-G1 phase increased after treatment with ginsenoside M1 and CDDP. (FIG. 3B). […] The data were expressed as mean±SD; n=3. ** and *** indicate a significant difference at the level of p<0.01 and p<0.001, respectively, compared to vehicle-control cells. (One-way ANOVA with Dunnett's multiple comparisons test).
# [2] = test system: human oral cancer cells SAS; experiment: Viability of human oral cancer SAS cells, Trypan blue exclusion; details: 5˜20 μg/ml, 24 h
# Description: Human oral cancer cell line SAS cells (FIG. 1A) or OECM-1 cells (FIG. 1B) were incubated for 24 h with ginsenoside M1 (5˜20 μg/ml), ginsenoside Rh2 (5˜20 μg/ml) or vehicle (0.1% DMSO). The live cell numbers were counted by Trypan blue exclusion method. The data were expressed as mean±SD; n=3. *, ** and *** indicate a significant difference at the level of p<0.05, p<0.01 and p<0.001, respectively, compared to vehicle-control cells. (One-way ANOVA with Dunnett's multiple comparisons test).
# Plate 5×10^5 human oral cancer cells SAS per 6-cm dish in 2 ml of culture medium and were grown overnight at 37° C. in a 5% CO2 incubator. The cells were incubated for 24 h with ginsenoside M1 (5˜20 μg/ml), ginsenoside Rh2 (5˜20 μg/ml) or vehicle. Each group contains a final DMSO concentration of 0.1%. Thereafter, the cell numbers were counted by Trypan blue exclusion method. […] The data were expressed as mean±SD; n=3. *, ** and *** indicate a significant difference at the level of p<0.05, p<0.01 and p<0.001, respectively, compared to vehicle-control cells. (One-way ANOVA with Dunnett's multiple comparisons test).
# [3] = test system: human oral cancer cells OECM-1; experiment: PI/Annexin V double staining assay by flow cytometry; details: 24 h
# Description: as §1, §2
# [4] = test system: human oral cancer SAS cells; experiment: Caspase-9 and caspase-3 activation, degradation of pro-caspases by Western blotting; details: 10˜20 μg/ml, 24 h
smiles,measurement,setting,value
"CC(C)=CCC[C@](C)(O[C@@H]1OC(CO)[C@@H](O)[C@@H](O)C1O)[C@H]1CC[C@]2(C)C1[C@H](O)CC1[C@@]3(C)CC[C@H](O)C(C)(C)C3CC[C@]12C (stereo partly drawn) [ginsenoside M1, 20-O-β-D-glucopyranosyl-20(S)-protopanaxadiol]",cells in sub-G1 phase,[1],increased
same,cells in G1 phase,[1]; vs control cells,increased in a concentration-dependent manner
same,percentage of cells in S and G2/M phase,[1]; vs control cells,decreasing
same,cell numbers of human oral cancer SAS cells,[2],dose-dependently inhibited
same,percentage of OECM-1 cells with PI/Annexin V double positive staining,[3]; 10 μg/ml,not 10 μg/ml ginsenoside M1 significantly increased
same,percentage of OECM-1 cells with PI/Annexin V double positive staining,[3]; 20 μg/ml,significantly increased
same,precursor of caspase-3 (pro-caspase-3) level,[4],decrease of the precursors of caspase-3 and caspase-9 in a dose-dependent manner
same,precursor of caspase-9 (pro-caspase-9) level,[4],decrease of the precursors of caspase-3 and caspase-9 in a dose-dependent manner
